Laboratory results from patent publication US20130253012A1, “Pyrazole Compounds for Controlling Invertebrate Pests” (BASF SE, priority 2010, published 2013).

What was measured:
Type in all cases: in vivo
[1] = system: Green Peach Aphid (Myzus persicae, Mixed Life Stages); assay: Green peach aphid, method a) (leaf dip, pepper plants); conditions: 300 ppm; pepper plant leaves dipped; after 5 days
Protocol: (§1) II.2 Green Peach Aphid (Myzus persicae, Mixed Life Stages)
(§2) The active compounds were formulated in 50:50 (v/v) acetone:water and 100 ppm nonionic surfactant (Kinetic®).
Pepper plants in the 2nd leaf-pair stage (variety ‘California Wonder’) were infested with approximately 40 laboratory-reared aphids by placing infested leaf sections on top of the test plants. The leaf sections were removed after 24 hours. The leaves of the intact plants were dipped into gradient solutions of the test compound and allowed to dry. Test plants were maintained under fluorescent light (24 hour photoperiod) at about 25° C. and 20-40% relative humidity. Aphid mortality on the treated plants, relative to mortality on check plants, was determined after 5 days.

[2] = system: Cotton Aphid (Aphis gossypii, Mixed Life Stages); assay: Cotton aphid, method a) (cotyledon dip); conditions: 300 ppm; cotton cotyledons dipped; counts after 5 days
Source text: (§3) II.1 Cotton Aphid (Aphis gossypii, Mixed Life Stages)
as §2
Cotton plants at the cotyledon stage (one plant per pot) were infested by placing a heavily infested leaf from the main colony on top of each cotyledon. The aphids were allowed to transfer to the host plant overnight, and the leaf used to transfer the aphids was removed. The cotyledons were dipped in the test solution and allowed to dry. After 5 days, mortality counts were made.

[3] = system: Cowpea Aphid (Aphis craccivora); assay: Cowpea aphid, sprayed potted cowpea plants; conditions: assessed after 24, 72 and 120 hours, read-out: mortality in comparison with untreated controls
Protocol: II.3 Cowpea Aphid (Aphis craccivora)
The active compounds were formulated in 50:50 (v/v) acetone:water. The test solution was prepared at the day of use.
Potted cowpea plants colonized with 100-150 aphids of various stages were sprayed after the pest population had been recorded. Population reduction was assessed after 24, 72, and 120 hours.

[4] = system: Vetch Aphid (Megoura viciae); assay: Vetch aphid, bean leaf disks in microtiterplates; conditions: foliar, 144 h, test solution 2500 mg/L, bean leaf disks sprayed with 2.5 μl, 6 days
Protocol: II.4 Vetch Aphid (Megoura viciae)
The active compounds were formulated in 1:3 (v/v) DMSO:water with different concentrations of formulated compounds.
Bean leaf disks were placed into microtiterplates filled with 0.8% agar-agar and 2.5 ppm OPUS™. The leaf disks were sprayed with 2.5 μl of the test solution and 5 to 8 adult aphids were placed into the microtiterplates which were then closed and kept at 23±1° C. and 50±5% relative humidity under fluorescent light for 6 days. Mortality was assessed on the basis of vital, reproduced aphids. Aphid mortality and fecundity was then visually assessed.

[5] = system: Green Peach Aphid (Myzus persicae, Mixed Life Stages); assay: Green peach aphid, method b) (electrostatic spray, bell pepper plants); conditions: 120 h, infested bell pepper plants sprayed, after 5 days, read-out: mortality in comparison with untreated controls
Protocol: as §1
(§4) The active compounds were formulated in cyclohexanone as a 10,0000 ppm solution supplied in 1.3 ml ABgene® tubes. These tubes were inserted into an automated electrostatic sprayer equipped with an atomizing nozzle and they served as stock solutions for which lower dilutions were made in 50% acetone:50% water (v/v). A nonionic surfactant (Kinetic®) was included in the solution at a volume of 0.01% (v/v).
Bell pepper plants at the first true-leaf stage were infested prior to treatment by placing heavily infested leaves from the main colony on top of the treatment plants. Aphids were allowed to transfer overnight to accomplish an infestation of 30-50 aphids per plant and the host leaves were removed. The infested plants were then sprayed by an automated electrostatic plant sprayer equipped with an atomizing spray nozzle. The plants were dried in the sprayer fume hood, removed, and then maintained in a growth room under fluorescent lighting in a 24 hour photoperiod at 25° C. and 20-40% relative humidity. Aphid mortality on the treated plants, relative to mortality on untreated control plants, was determined after 5 days.

[6] = system: Boll Weevil (Anthonomus grandis); assay: Boll weevil, insect diet with eggs in 24-well microtiter plates; conditions: 120 h, test solution 2500 mg/L, 20 μl sprayed onto insect diet, 5 days, read-out: mortality (egg and larval)
Protocol: II.5 Boll Weevil (Anthonomus grandis)
The compounds were formulated in 75:25 (v/v) water:DMSO.
For evaluating control of boll weevil (Anthonomus grandis) the test unit consisted of 24-well-microtiter plates containing an insect diet and 20-30 A. grandis eggs. Different concentrations of formulated compounds were sprayed onto the insect diet at 20 μl, using a custom built micro atomizer, at two replications. After application, the microtiter plates were incubated at 23±1° C. and 50±5% relative humidity for 5 days. Egg and larval mortality was then visually assessed.

[7] = system: Cotton Aphid (Aphis gossypii, Mixed Life Stages); assay: Cotton aphid, method b) (electrostatic spray); conditions: 120 h, infested cotton plants sprayed, after 5 days, read-out: mortality in comparison with untreated controls
Protocol: as §3, §4
Cotton plants at the cotyledon stage were infested with aphids prior to treatment by placing a heavily infested leaf from the main aphid colony on top of each cotyledon. Aphids were allowed to transfer overnight to accomplish an infestation of 80-100 aphids per plant and the host leaf was removed. The infested plants were then sprayed by an automated electrostatic plant sprayer equipped with an atomizing spray nozzle. The plants were dried in the sprayer fume hood, removed from the sprayer, and then maintained in a growth room under fluorescent lighting in a 24 hour photoperiod at 25° C. and 20-40% relative humidity. Aphid mortality on the treated plants, relative to mortality on untreated control plants, was determined after 5 days.

[8] = system: Green Peach Aphid (Myzus persicae); assay: Green peach aphid through systemic means, artificial diet under membrane; conditions: 72 h, pipetted into aphid diet, 3 days, read-out: mortality in comparison with untreated controls
Source text: II.6 Activity Against Green Peach Aphid (Myzus persicae)
For evaluating control of green peach aphid (Myzus persicae) through systemic means the test unit consisted of 96-well-microtiter plates containing liquid artificial diet under an artificial membrane.
The compounds were formulated using a solution containing 75% v/v water and 25% v/v DMSO. Different concentrations of formulated compounds were pipetted into the aphid diet, using a custom built pipetter, at two replications. After application, 5 to 8 adult aphids were placed on the artificial membrane inside the microtiter plate wells. The aphids were then allowed to suck on the treated aphid diet and incubated at about 23+1° C. and about 50+5% relative humidity for 3 days. Aphid mortality and fecundity was then visually assessed.

[9] = system: Green Peach Aphids (Myzus persicae); assay: Hydroponic test against green peach aphids (bare root pepper plants); conditions: bare roots immersed 24 hours, assay 3 days, read-out: mortality in comparison with untreated controls
Protocol: II.9 Activity in the Hydroponic Tests Against Green Peach Aphids (Myzus persicae)
(§5) Green pepper plants (Capsicum annuum L., variety ‘California Wonder’) were grown in the greenhouse from seed to the second true leaf stage (BBCH 12) in Scott's Metro-Mix® 360 (1 to 2 plants per 2¼″ square pot). Cotyledon leaves were removed and roots were rinsed in tap water until free of soil. The roots were kept moist under a layer of wet paper toweling until all plants had been prepared.
(§6) A 3,400 ppm stock solution was prepared of each test compound using reagent grade acetone as the solvent. Subsequent dilutions of 100 and 10 ppm were prepared from this stock with final dilutions in deionized water in 100 ml amber glass bottles. One bare root plant was placed in each bottle using a foam plug section to centrally secure the stem in the bottleneck. The bare roots were fully-immersed in the test suspensions. Host plants were placed in a plant growth room under continuous GroLux® fluorescent lighting (40 Watt), for 24 hours at 25±2° C. and 20-40% relative humidity.
After exposure of the bare roots to the test suspensions, pieces of pepper plants infested with green peach aphid (Myzus persicae) were placed on top of the test foliage. Insects were allowed to transfer from the host leaves to accomplish an infestation of 40-50 insects per plant. The assay was allowed to run for 3 days in the same growth room as used previously. Assessments included estimates of aphid population density reduction relative to the average density of aphids on the untreated control plants. Phytotoxic responses of the host plants were also recorded at this time.

[10] = system: Cotton Aphids (Aphis gossypii); assay: Hydroponic test against cotton aphids (bare root cotton plants); conditions: bare roots immersed 24 hours, assay 3 days, read-out: mortality in comparison with untreated controls
Protocol: II.10 Activity in the Hydroponic Tests Against Cotton Aphids (Aphis gossypii)
as §5, with “Cotton” for “Green pepper”, “(Gossypium hirsutum,” for “(Capsicum annuum L.,”, “‘Sure Grow 747’)” for “‘California Wonder’)”
as §6
After exposure of the bare roots to the test suspensions, pieces of cotton plants infested with cotton aphids (Aphis gossypi) were placed on top of the test foliage. Insects were allowed to transfer from the host leaves to accomplish an infestation of 40-50 insects per plant. […] Phytotoxic responses of the host plants were also recorded at this time.

[11] = system: Silverleaf Whitefly (Bemisia argentifolii, Adult); assay: Silverleaf whitefly, sprayed cotton plants; conditions: 72 h, 3 days after treatment, read-out: mortality in comparison with untreated controls
Protocol: II.7 Silverleaf Whitefly (Bemisia argentifolii, Adult)
as §4
Cotton plants at the cotyledon stage (one plant per pot) were sprayed by an automated electrostatic plant sprayer equipped with an atomizing spray nozzle. The plants were dried in the sprayer fume hood and then removed from the sprayer. Each pot was placed into a plastic cup and 10 to 12 whitefly adults (approximately 3-5 days old) were introduced. The insects were collected using an aspirator and 0.6 cm, nontoxic Tygon® tubing (R-3603) connected to a barrier pipette tip. The tip, containing the collected insects, was then gently inserted into the soil containing the treated plant, allowing insects to crawl out of the tip to reach the foliage for feeding. Cups were covered with a reusable screened lid (150-micron mesh polyester screen PeCap from Tetko, Inc.). […] Mortality was assessed 3 days after treatment, compared to untreated control plants.

Structure (SMILES)	mortality at 500 ppm [3] [%]	mortality at 2500 µg/mL [4] [%]	mortality at 300 ppm [5] [%]	mortality at 2500 µg/mL [6] [%]	mortality at 300 ppm [7] [%]	mortality at 2500 ppm [8] [%]	mortality at 100 ppm [9] [%]	also measured
Cn1cc(-c2nncn2-c2cccnc2)c(C(F)(F)F)n1 [Example 1]	–	–	–	–	–	–	–	mortality in comparison with untreated controls [1]: at least 90%; mortality in comparison with untreated controls [2]: at least 75%
Cc1c(-c2nncn2-c2cccnc2)cnn1CC(F)(F)F [Example 2, 3-{3-[5-Methyl-1-(2,2,2-trifluoroethyl)-1H-pyrazol-4-yl]-[1,2,4]triazol-4-yl}pyridine]	≥ 75	–	–	–	–	–	–	–
Cc1c(-c2nc(-c3cccnc3)co2)cnn1CC(F)(F)F [Example 4, 3-{2-[5-Methyl-1-(2,2,2-trifluoroethyl)-1H-pyrazol-4-yl]-oxazol-4-yl}pyridine]	–	≥ 90	–	–	–	–	–	–
Cc1c(-c2nnc(-c3cccnc3)o2)cnn1CC(F)(F)F [Example 14, 3-{5-[5-Methyl-1-(2,2,2-trifluoroethyl)-1H-pyrazol-4-yl]-[1,3,4]oxadiazol-2-yl}pyridine]	≥ 75	–	≥ 75	≥ 50	≥ 75	–	–	–
Cc1c(-c2nnc(-c3cccnc3)s2)cnn1CC(F)(F)F [Example 15, 3-{5-[5-Methyl-1-(2,2,2-trifluoroethyl)-1H-pyrazol-4-yl]-[1,3,4]thiadiazol-2-yl}pyridine]	≥ 75	≥ 90	≥ 75	≥ 50	≥ 75	100	≥ 75	–
Cc1c(C2=NCCN2c2cccnc2)cnn1CC(F)(F)F [Example 18, 3-{2-[5-Methyl-1-(2,2,2-trifluoroethyl)-1H-pyrazol-4-yl]-4,5-dihydroimidazol-1-yl}pyridine]	≥ 75	–	≥ 75	–	≥ 75	100	≥ 75	mortality at 100 ppm [10]: ≥ 75%
Cc1c(-c2nccn2-c2cccnc2)cnn1CC(F)(F)F [Example 20, 3-{2-[5-Methyl-1-(2,2,2-trifluoroethyl)-1H-pyrazol-4-yl]imidazol-1-yl}pyridine]	≥ 75	≥ 90	≥ 75	–	≥ 75	100	≥ 75	mortality at 500 ppm [11]: ≥ 75%; mortality at 100 ppm [10]: ≥ 75%
Cc1c(-c2nc(-c3cccnc3)nn2C)cnn1CC(F)(F)F [Example 38, 3-{1-methyl-5-[5-methyl-1-(2,2,2-trifluoroethyl)-1H-pyrazol-4-yl]-1H-[1,2,4]triazol-3-yl}pyridine]	–	–	–	≥ 50	–	–	–	–
Cc1c(-c2noc(=O)n2-c2cccnc2)cnn1CC(F)(F)F [Example 39, 3-{3-[5-Methyl-1-(2,2,2-trifluoroethyl)-1H-pyrazol-4-yl]-4H-[1,2,4]oxadiazol-5-on-4-yl}pyridine]	≥ 75	≥ 90	–	–	–	100	–	–
